# Measured values from paper PMC3602187, “From Design to Screening: A New Antimicrobial Peptide Discovery Pipeline” (PLoS ONE, 2013).
# Test system: Listeria innocua 33090
# Assay: colony overlay assay of peptide-secreting E. coli clones (library screening and re-test)
# Format: cell-based
# Set-up: key: higher activity group (H); equal activity group (E); lower activity group (L)
# Conditions: library screening; selected colonies pooled by zone size; peptides identified by 454 sequencing, full-length sequences with minimum 20 reads
# Protocol: For the in vivo production of AMPs, we have employed an E. coli expression system that relies on periplasmic-expression of recombinant peptides in a host cell that lacks the lpo membrane protein, thus releasing the peptides present in the periplasmic space outside the cells. When the producer cells are grown into colonies on a solid substrate, it leads to accumulation of the recombinant peptides around the colony and allows for easy library screening. The screening assay used in this study was a modified version of the standard agar diffusion method as previously described. Library-transformed E. coli colonies are overlaid with a tester strain and incubated overnight to allow for peptide expression and tester strain growth. Next day, the plates are inspected for the formation of clear growth inhibition zones around E. coli colonies, which is an indication of active AMP production by the host colony.
# For the construction of Pln-423 mutant library in E. coli, the expression system that consists of a periplasmic-leaky E. coli strain JE5505 and the expression plasmid pFLAG-CTS was employed for direct screening of peptide activities. It should be noted here that this plasmid contains ompA secretion signal sequence and cleavage of this sequence results in a serine residue at the N-terminal of all mature peptides. A total of 1.0×10^5 colonies, approximately 8-fold coverage of the library, were screened against Listeria innocua 33090 in five separate screening experiments. L. innocua was previously deemed as a suitable indicator for pathogenic L. monocytogenes displaying similar bacteriocin sensitivity, therefore it was used as a surrogate strain throughout this study. The selection process involved two criteria; 1) the size of the each inhibition zone was compared to that of wild-type Pln-423 as a correlation to anti-listerial activity level, 2) when several colonies formed inhibition zones that are very similar in size and character, only a few from each group were selected. The colonies were pooled into three groups based on their activities, giving 43 clones in a higher activity group (H), 81 clones in an equal activity group (E), and 241 clones in a lower activity group (L). Their plasmids were extracted from each activity group and analyzed by both Sanger and 454 high-throughput sequencing to identify peptide sequences.
# These clones were also re-tested by colony overlay assay to compare their activities to wild-type Pln-423 based on the size of the inhibition zone around each clone (Figure 2-A). Based on this assay, all ten plantaricin mutants formed larger inhibition zones (10.3±0.5 to 11.4±0.3 mm zone diameter) compared to wild-type Pln-423 (6.2±0.2 mm) against L. innocua 33090. Out of those ten, three clones have a single mutation and […] clones have two mutations and the remaining single clone has three mutations. […] Positions like Ser23, Ser27, His28, and Lys36 were commonly mutated with similar amino acids indicating their potential role on higher peptide activity.
# The screening method used in this study was a modified version of the standard colony overlay method as previously described. All the chemicals and growth media supplements were obtained from either Sigma-Aldrich or Fisher Scientific unless otherwise stated. Transformed E. coli JE5505 cells were diluted to 3000–5000 cfu (determined empirically prior to screening by plating serial dilutions of E. coli suspensions of a known absorbance and counting the colonies after incubation) in 25 ml LB soft agar (0.8%, 45°C) per screening plate and poured into 150 mm petri dishes. Once the media was solidified, they were overlaid with 10 ml LB soft agar (45°C) and incubated at 37°C for 24 h for host-colony formation. Next day, these plates were re-overlaid with 10 ml TSB soft agar containing 1 mM IPTG and the indicator strain Listeria innocua ATCC 33090 (diluted to OD600 = 0.03). […]
row,Substance,activity group by size of inhibition zone compared to wild-type Pln-423
1,KYYGNGVTCGKHSCSVNWGQAFSCGVSHLANFGHGKC* [GROUP E-UM-7],E
2,KYYGNGVTCGKHSCSVNWGQAFSCGVSHLANMGHGKC* [Pep-2_9473],H
3,KYYGNGVTCGKHSCSVNWGQAFSCHVDHLANFGHGKC* [Pep-2_4616],E
4,KYYGNGVTCGKHSCSVNWGQAFSCHVSHLANFGHGKC* [Pep-1_43],L
5,KYYGNGVTCGKHSCSVNWGQAFSCHVSTLANFGHGKC* [Pep-2_4623],L
6,KYYGNGVTCGKHSCSVNWGQAFSCIVENLANFGHGKC* [GROUP L-UM-26],L
7,KYYGNGVTCGKHSCSVNWGQAFSCLVSNLANFGHGKC* [Pep-2_6772],L
8,KYYGNGVTCGKHSCSVNWGQAFSCMVSHLANGGHGKC* [Pep-2_9580],L
9,KYYGNGVTCGKHSCSVNWGQAFSCNVSHLANFGHGKC* [Pep-1_45],L
10,KYYGNGVTCGKHSCSVNWGQAFSCNVSHLANFGHGVC* [Pep-2_4888],L and H
11,KYYGNGVTCGKHSCSVNWGQAFSCRVEHLANFGHGKC* [Pep-2_6013],L
12,KYYGNGVTCGKHSCSVNWGQAFSCRVSHLANFGHGKC* [GROUP L-UM-13],L
13,KYYGNGVTCGKHSCSVNWGQAFSCSASHLANFGHGKC* [Pep-1_53],L
14,KYYGNGVTCGKHSCSVNWGQAFSCSFSHLANFGHGKC* [Pep-1_52],L
15,KYYGNGVTCGKHSCSVNWGQAFSCSIHHLANFGHGKC* [Pep-2_5914],L
16,KYYGNGVTCGKHSCSVNWGQAFSCSMSHLANFGHGKC* [GROUP L-UM-5],L
17,KYYGNGVTCGKHSCSVNWGQAFSCSMSRLANFGHGKC* [Pep-2_6562],L
18,KYYGNGVTCGKHSCSVNWGQAFSCSTSHLANFGHGKC* [GROUP E-UM-4],E
19,KYYGNGVTCGKHSCSVNWGQAFSCSVAELANFGHGKC* [Pep-2_6350],H
20,KYYGNGVTCGKHSCSVNWGQAFSCSVAHFANLGHGKC* [GROUP L-UM-30],L
21,KYYGNGVTCGKHSCSVNWGQAFSCSVAHLANFGHGKC* [Pep-1_59],L

row,Substance,activity group by size of inhibition zone compared to wild-type Pln-423
1,KYYGNGVTCGKHSCSVNWGQAFSCSVCHMANFGHGKC* [Pep-2_7542],L
2,KYYGNGVTCGKHSCSVNWGQAFSCSVDHLANFGHGHC* [Pep-2_11750],H
3,KYYGNGVTCGKHSCSVNWGQAFSCSVDHLANFGHGKC* [GROUP H-UM-2],H
4,KYYGNGVTCGKHSCSVNWGQAFSCSVEHLANFGHAKC* [Pep-2_6071],E
5,KYYGNGVTCGKHSCSVNWGQAFSCSVEHLANFGHGGC* [Pep-2_6077],E and H
6,KYYGNGVTCGKHSCSVNWGQAFSCSVEHLANFGHGHC* [Pep-2_6073],E
7,KYYGNGVTCGKHSCSVNWGQAFSCSVEHLANFGHGKC* [Pep-1_56],E and H
8,KYYGNGVTCGKHSCSVNWGQAFSCSVEHLANFGHIKC* [Pep-2_6070],L
9,KYYGNGVTCGKHSCSVNWGQAFSCSVEHLANFGHNKC* [Pep-2_11318],H
10,KYYGNGVTCGKHSCSVNWGQAFSCSVEHLANFGYGKC* [Pep-2_6063],E
11,KYYGNGVTCGKHSCSVNWGQAFSCSVFHLANFGHGLC* [Pep-2_12076],L
12,KYYGNGVTCGKHSCSVNWGQAFSCSVGVLANFGHMHC* [GROUP L-UM-19],L
13,KYYGNGVTCGKHSCSVNWGQAFSCSVHHLANFGHGKC* [Pep-1_55],L
14,KYYGNGVTCGKHSCSVNWGQAFSCSVHHLANYGHGKC* [Pep-2_5943],L
15,KYYGNGVTCGKHSCSVNWGQAFSCSVHRLANFGHGKC* [Pep-2_5917],L
16,KYYGNGVTCGKHSCSVNWGQAFSCSVIALANFGHGKC* [Pep-2_7000],L
17,KYYGNGVTCGKHSCSVNWGQAFSCSVIHLANFGHGSC* [Pep-2_11968],H
18,KYYGNGVTCGKHSCSVNWGQAFSCSVLHLANFGHGKC* [GROUP L-UM-20],L
19,KYYGNGVTCGKHSCSVNWGQAFSCSVMHLANFGHGKC* [GROUP L-UM-16],L
20,KYYGNGVTCGKHSCSVNWGQAFSCSVNVLANFGHGKC* [Pep-2_6891],L
21,KYYGNGVTCGKHSCSVNWGQAFSCSVRHLANFGHGEC* [Pep-2_11857],L

row,Substance,activity group by size of inhibition zone compared to wild-type Pln-423
1,KYYGNGVTCGKHSCSVNWGQAFSCSVSALANFGHGRC* [Pep-2_7045],L
2,KYYGNGVTCGKHSCSVNWGQAFSCSVSDLANFGHGKC* [Pep-1_62],L
3,KYYGNGVTCGKHSCSVNWGQAFSCSVSHFANFGHGKC* [GROUP E-UM-8],E
4,KYYGNGVTCGKHSCSVNWGQAFSCSVSHLA*FGHGKC* [GROUP L-UM-33],L
5,KYYGNGVTCGKHSCSVNWGQAFSCSVSHLAAFGHGSC* [Pep-2_11993],H
6,KYYGNGVTCGKHSCSVNWGQAFSCSVSHLAEFGHGKC* [Pep-1_80],L
7,KYYGNGVTCGKHSCSVNWGQAFSCSVSHLAKFGHGKC* [Pep-1_81],L
8,KYYGNGVTCGKHSCSVNWGQAFSCSVSHLANFGEGKC* [Pep-1_98],H
9,KYYGNGVTCGKHSCSVNWGQAFSCSVSHLANFGFGWC* [Pep-2_12334],L
10,KYYGNGVTCGKHSCSVNWGQAFSCSVSHLANFGHAKC* [Pep-1_107],L
11,KYYGNGVTCGKHSCSVNWGQAFSCSVSHLANFGHDKC* [GROUP E-UM-9],E
12,KYYGNGVTCGKHSCSVNWGQAFSCSVSHLANFGHGCC* [GROUP L-UM-31],L
13,KYYGNGVTCGKHSCSVNWGQAFSCSVSHLANFGHGEC* [Pep-1_110],H
14,KYYGNGVTCGKHSCSVNWGQAFSCSVSHLANFGHGKC* [GROUP E-UM-11],E
15,KYYGNGVTCGKHSCSVNWGQAFSCSVSHLANFGHGKC* [GROUP L-UM-27],L
16,KYYGNGVTCGKHSCSVNWGQAFSCSVSHLANFGHGLC* [Pep-1_112],L
17,KYYGNGVTCGKHSCSVNWGQAFSCSVSHLANFGHGRC* [GROUP L-UM-25],L
18,KYYGNGVTCGKHSCSVNWGQAFSCSVSHLANFGHGSC* [Pep-1_111],L and E
19,KYYGNGVTCGKHSCSVNWGQAFSCSVSHLANFGHGWC* [Pep-1_114],L
